What is called AC50 is the concentration giving half of the maximal activity seen. A high value points to activity only at high concentration.

Data on three molecules can be found in ChEMBL document CHEMBL5291721, “A preclinical secondary pharmacology resource illuminates target-adverse drug reaction associations of marketed drugs” (Nat Commun, 2023).

In one experiment the target is T1, Androgen receptor (Homo sapiens, UniProt P10275).
T1 sequence (P10275 whole entry): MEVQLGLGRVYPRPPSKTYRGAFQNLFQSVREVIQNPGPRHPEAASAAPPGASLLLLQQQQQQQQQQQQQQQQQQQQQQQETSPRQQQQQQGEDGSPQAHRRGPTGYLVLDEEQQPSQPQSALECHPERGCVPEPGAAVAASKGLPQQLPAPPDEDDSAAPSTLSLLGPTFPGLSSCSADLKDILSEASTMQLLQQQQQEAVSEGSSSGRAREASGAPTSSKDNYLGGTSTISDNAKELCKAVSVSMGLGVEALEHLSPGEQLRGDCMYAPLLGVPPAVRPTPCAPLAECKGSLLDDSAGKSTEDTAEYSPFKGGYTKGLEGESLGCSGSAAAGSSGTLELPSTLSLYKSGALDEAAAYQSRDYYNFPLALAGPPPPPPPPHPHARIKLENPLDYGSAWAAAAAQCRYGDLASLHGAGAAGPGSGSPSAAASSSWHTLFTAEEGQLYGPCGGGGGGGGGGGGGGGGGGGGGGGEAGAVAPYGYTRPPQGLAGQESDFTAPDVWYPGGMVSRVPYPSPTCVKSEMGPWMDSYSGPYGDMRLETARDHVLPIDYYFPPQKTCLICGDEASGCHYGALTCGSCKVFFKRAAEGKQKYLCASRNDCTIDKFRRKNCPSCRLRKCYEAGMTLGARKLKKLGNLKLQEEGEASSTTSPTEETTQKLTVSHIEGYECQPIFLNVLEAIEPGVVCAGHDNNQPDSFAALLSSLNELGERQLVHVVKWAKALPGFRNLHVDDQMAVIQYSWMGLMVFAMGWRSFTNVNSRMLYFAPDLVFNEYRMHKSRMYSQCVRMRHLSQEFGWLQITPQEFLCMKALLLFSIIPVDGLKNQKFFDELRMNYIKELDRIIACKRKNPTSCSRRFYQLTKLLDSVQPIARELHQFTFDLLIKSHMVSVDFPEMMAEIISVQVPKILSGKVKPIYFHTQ

Experiment [1] addresses T2, Sodium-dependent noradrenaline transporter (Homo sapiens, UniProt P23975).
In experiment [2] the target is Gamma-aminobutyric acid receptor subunit alpha-1 (Rattus norvegicus, UniProt P62813).
Another experiment concerns the target T3, B2 bradykinin receptor (Homo sapiens, UniProt P30411).
T3 sequence (P30411 whole entry): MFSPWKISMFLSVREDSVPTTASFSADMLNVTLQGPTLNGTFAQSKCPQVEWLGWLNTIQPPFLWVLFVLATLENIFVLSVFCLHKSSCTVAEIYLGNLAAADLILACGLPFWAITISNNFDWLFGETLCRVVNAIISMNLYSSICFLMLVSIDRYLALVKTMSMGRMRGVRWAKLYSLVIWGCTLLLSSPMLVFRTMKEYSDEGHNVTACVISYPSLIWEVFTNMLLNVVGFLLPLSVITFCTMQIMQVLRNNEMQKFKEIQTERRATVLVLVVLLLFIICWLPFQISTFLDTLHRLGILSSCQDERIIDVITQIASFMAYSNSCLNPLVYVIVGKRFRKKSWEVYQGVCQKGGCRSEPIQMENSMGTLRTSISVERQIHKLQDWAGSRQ

Experiment [3] addresses T2, Sodium-dependent noradrenaline transporter. The source holds these as a separate data set.
The target in experiment [4] is Glutamate receptor ionotropic, NMDA 1 (Rattus norvegicus, UniProt P35439).
The target of experiment [5] is T4, 5-hydroxytryptamine receptor 2A (Homo sapiens, UniProt P28223). Format: functional, cell-based.
The target of experiment [6] is Growth hormone secretagogue receptor type 1 (Homo sapiens, UniProt Q92847).
Experiment [7] deals with T4, 5-hydroxytryptamine receptor 2A. Format: functional, cell-based. The source holds these as a separate data set.
The target in experiment [8] is T5, Type-1 angiotensin II receptor (Homo sapiens, UniProt P30556).
T5 sequence (P30556 whole entry): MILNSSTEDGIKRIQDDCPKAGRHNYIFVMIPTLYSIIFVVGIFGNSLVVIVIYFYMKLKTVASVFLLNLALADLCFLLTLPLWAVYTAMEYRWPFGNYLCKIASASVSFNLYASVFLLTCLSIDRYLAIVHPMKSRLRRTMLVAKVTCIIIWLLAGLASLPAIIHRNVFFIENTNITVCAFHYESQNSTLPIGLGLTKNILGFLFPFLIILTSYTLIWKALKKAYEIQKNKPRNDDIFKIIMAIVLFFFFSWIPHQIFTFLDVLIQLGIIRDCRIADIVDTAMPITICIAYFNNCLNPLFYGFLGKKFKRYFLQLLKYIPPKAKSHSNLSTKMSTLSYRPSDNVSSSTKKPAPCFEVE

Experiment [9] deals with T6, Prostaglandin G/H synthase 1 (Rattus norvegicus, UniProt Q63921).
T6 sequence (Q63921 whole entry): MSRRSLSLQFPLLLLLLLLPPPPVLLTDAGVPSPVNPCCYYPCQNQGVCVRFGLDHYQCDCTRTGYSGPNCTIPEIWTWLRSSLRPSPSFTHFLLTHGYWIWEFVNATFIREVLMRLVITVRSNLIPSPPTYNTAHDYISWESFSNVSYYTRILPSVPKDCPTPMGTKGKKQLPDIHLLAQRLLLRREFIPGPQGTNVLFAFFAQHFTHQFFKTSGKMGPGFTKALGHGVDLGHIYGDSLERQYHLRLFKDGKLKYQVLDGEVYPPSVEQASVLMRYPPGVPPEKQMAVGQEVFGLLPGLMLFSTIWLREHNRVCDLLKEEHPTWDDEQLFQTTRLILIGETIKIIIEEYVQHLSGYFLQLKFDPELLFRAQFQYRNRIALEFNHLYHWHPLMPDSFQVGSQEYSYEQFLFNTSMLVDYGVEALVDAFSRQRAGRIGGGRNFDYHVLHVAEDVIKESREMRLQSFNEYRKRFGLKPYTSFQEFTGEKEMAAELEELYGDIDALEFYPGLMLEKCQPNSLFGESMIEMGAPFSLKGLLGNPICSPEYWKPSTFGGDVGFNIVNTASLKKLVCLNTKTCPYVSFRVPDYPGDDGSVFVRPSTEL
Format: functional.

In experiment [10] the target is Beta-1 adrenergic receptor (Homo sapiens, UniProt P08588). Format: functional.
The target of another experiment is D(3) dopamine receptor (Homo sapiens, UniProt P35462).
The target in experiment [11] is 5-hydroxytryptamine receptor 2B (Homo sapiens, UniProt P41595). It counts as functional, cell-based.
Further: assay procedure not described here.

T2 sequence (P23975 whole entry): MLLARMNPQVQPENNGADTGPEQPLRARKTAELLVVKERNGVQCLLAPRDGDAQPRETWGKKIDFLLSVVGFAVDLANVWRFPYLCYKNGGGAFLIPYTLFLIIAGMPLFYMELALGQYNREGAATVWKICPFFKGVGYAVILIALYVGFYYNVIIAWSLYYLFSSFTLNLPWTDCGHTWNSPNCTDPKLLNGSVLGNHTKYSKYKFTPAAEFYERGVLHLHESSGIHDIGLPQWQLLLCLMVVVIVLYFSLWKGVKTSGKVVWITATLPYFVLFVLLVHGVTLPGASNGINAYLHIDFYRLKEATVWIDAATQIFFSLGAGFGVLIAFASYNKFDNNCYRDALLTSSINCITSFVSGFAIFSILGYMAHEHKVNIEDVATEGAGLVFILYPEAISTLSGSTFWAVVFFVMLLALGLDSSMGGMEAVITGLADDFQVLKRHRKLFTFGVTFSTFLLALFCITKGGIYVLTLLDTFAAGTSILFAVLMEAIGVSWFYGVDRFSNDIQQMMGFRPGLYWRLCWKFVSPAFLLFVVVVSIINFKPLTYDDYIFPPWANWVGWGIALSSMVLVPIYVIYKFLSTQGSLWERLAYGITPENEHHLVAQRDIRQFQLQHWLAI
T4 sequence (P28223 whole entry): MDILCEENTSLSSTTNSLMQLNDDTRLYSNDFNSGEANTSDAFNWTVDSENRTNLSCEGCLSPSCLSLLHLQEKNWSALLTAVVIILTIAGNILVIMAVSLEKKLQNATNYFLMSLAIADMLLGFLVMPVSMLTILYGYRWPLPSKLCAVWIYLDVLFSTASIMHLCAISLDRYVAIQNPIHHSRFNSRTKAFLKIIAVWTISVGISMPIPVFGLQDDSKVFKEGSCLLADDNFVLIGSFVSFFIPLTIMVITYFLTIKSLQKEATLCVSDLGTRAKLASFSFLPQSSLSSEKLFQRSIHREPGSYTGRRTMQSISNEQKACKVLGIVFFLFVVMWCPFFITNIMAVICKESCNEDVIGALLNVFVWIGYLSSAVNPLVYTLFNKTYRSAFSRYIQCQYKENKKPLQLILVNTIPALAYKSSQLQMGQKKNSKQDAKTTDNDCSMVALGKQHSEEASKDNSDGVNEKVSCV
Growth hormone secretagogue receptor type 1, sequence (Q92847 whole entry): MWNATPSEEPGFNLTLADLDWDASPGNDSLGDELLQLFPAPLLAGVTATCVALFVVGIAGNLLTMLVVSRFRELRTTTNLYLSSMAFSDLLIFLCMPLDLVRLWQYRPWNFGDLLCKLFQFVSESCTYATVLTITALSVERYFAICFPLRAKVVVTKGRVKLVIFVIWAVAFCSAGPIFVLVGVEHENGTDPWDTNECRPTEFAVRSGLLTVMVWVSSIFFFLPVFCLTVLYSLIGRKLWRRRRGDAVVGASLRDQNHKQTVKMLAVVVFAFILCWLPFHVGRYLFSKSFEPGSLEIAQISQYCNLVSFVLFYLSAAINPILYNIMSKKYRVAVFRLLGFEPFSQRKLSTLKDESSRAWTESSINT
Beta-1 adrenergic receptor, sequence (P08588 whole entry): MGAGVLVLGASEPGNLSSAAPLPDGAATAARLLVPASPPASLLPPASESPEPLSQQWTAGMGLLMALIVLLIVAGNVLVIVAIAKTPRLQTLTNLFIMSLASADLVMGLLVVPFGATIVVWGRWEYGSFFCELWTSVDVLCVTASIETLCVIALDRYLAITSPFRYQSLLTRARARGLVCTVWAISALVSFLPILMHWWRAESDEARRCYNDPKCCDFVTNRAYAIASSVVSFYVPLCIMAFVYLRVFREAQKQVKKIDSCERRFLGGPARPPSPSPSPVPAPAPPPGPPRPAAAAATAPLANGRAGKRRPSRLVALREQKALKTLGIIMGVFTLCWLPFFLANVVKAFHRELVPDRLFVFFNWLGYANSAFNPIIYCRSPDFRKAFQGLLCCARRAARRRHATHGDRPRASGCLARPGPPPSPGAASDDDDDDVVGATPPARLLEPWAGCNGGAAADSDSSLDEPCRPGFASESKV
D(3) dopamine receptor, sequence (P35462 whole entry): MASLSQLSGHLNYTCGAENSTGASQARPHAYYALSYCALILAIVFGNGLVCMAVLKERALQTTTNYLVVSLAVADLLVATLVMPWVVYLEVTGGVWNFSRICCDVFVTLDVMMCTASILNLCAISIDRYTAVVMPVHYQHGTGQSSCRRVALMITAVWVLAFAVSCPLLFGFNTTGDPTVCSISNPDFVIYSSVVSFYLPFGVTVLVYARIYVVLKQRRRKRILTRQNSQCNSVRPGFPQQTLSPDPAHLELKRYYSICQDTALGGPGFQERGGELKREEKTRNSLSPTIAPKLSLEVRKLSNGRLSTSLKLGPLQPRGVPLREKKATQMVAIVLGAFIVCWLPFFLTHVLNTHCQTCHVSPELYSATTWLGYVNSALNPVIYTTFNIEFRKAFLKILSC
5-hydroxytryptamine receptor 2B, sequence (P41595 whole entry): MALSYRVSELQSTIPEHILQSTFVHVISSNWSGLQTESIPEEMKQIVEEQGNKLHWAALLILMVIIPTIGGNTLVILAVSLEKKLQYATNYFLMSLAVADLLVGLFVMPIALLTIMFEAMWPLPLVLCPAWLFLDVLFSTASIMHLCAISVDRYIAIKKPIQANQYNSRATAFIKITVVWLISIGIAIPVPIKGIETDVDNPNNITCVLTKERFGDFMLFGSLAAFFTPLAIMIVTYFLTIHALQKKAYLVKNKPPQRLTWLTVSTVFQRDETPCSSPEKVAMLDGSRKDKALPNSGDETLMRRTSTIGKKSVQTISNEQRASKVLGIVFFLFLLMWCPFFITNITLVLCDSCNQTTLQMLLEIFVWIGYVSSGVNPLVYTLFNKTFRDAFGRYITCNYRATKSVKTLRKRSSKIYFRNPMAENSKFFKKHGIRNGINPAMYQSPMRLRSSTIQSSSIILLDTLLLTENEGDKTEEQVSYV
Gamma-aminobutyric acid receptor subunit alpha-1, sequence (P62813 whole entry): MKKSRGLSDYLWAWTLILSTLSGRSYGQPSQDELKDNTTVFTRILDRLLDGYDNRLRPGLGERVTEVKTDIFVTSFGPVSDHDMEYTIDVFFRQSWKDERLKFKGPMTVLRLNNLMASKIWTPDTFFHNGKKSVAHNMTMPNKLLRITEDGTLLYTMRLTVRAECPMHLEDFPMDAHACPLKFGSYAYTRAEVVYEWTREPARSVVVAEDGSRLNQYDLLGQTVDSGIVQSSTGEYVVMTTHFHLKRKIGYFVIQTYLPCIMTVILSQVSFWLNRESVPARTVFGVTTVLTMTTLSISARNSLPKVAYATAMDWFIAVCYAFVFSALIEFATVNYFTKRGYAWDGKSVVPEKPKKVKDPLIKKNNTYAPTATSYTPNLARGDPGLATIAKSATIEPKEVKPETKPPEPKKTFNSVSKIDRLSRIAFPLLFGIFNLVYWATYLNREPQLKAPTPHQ

`CN(C)c1ccc(C(=C2C=CC(=[N+](C)C)C=C2)c2ccc(N(C)C)cc2)cc1` [GENTIAN VIOLET]: the concentration at half-maximal activity (AC50) was above 30 µM at Androgen receptor and 4.7 µM in experiment [1].

As for `Nc1ccc(S(N)(=O)=O)cc1` [SULFANILAMIDE], the half-maximal activity concentration (AC50) in experiment [2] is above 30 µM.

On to HYDROXOCOBALAMIN, for which the half-maximal activity concentration (AC50) (at B2 bradykinin receptor; in experiment [3]; in [4]; in [5]; in experiment [6]; in experiment [7]) was above 30 µM throughout. Moreover, the half-maximal activity concentration (AC50) was above 30 µM in experiment [8]; 0.003 µM in experiment [9]; above 30 µM in [10]; above 30 µM at D(3) dopamine receptor; above 30 µM in experiment [11].
